Assay results as given in patent US5932189A, “Cyclic peptide somatostatin analogs” (Diatech, Inc., priority 1994, dated 1999).
Square brackets hold non-standard residues; d marks the D form. Peptide text beside a SMILES is read from it. * marks the point of attachment. X4 = NCCCC[C@H](NC(=O)[C@H](CS)NC(=O)CNC(=O)[C@@H](N)CCCCNC(=O)C*)C(N)=O; X8 = NC(=O)[C@H](CCC(=O)O)NC(=O)[C@H](CS)NC(=O)CNC(=O)[C@H](CS)NC(=O)C*; X2 = N=C(N)NCCC[C@H](NC(=O)[C@H](CS)NC(=O)CNC(=O)CNC(=O)C*)C(N)=O; X1 = NCCCC[C@H](NC(=O)[C@H](CS)NC(=O)CNC(=O)CNC(=O)C*)C(N)=O; NMeF = CN[C@@H](Cc1ccccc1)C(=O)O; hCys = N[C@@H](CCS)C(=O)O

Biological target: T1, somatostatin receptors (Rattus norvegicus, UniProt P30680)
T1 construct: endogenous in cells; host or cells: AR42J rat pancreatic tumor cell line (membrane preparation)
Assay: Inhibition of binding of (125I-Tyr11)somatostatin-14 to AR42J rat pancreatic tumor cell membranes
Settings: 0.5 nM (125I-Tyr11)somatostatin-14, 25 min at 30° C., Hill plots
Method: Inhibition of Binding of (^125 I-Tyr^11)somatostatin-14 to AR42J Rat Pancreatic Tumor Cell Membranes
The rat pancreatic tumor cell line AR42J which expresses the somatostatin receptor was cultured in Dulbecco's minimal essential media (DMEM) supplemented with 10% fetal bovine serum (FBS) and 8 mM glutamine in a humidified 5% CO2 atmosphere at 37° C. in T-flasks. Harvested cells were homogenized in cold 50 mM Tris-HCl buffer (pH 7.4) and the homogenate then centrifuged at 39,000 g for 10 min at 4° C. Pellets were washed once with buffer and then resuspended in an ice-cold solution of 10 mM Tris-HCl (pH 7.4). Equal aliquots of this cell membrane preparation were incubated with (^125 I-Tyr^11)somatostatin-14 (at a final concentration of 0.5 nM and 750,000 cpm/mL, at a specific activity of 2000 Ci/mmol, Amersham, Arlington Heights, Ill.) and peptide at a final concentration of from 10^-11 M to 10^-6 M in a solution of 50 mM HEPES (pH 7.4) containing 1% bovine serum albumin (BSA), 5 mM MgCl2, Trasylol (200,000 International Units), bacitracin (0.02 mg/mL) and phenylmethylsulfonylfluoride (0.02 mg/mL) for 25 min at 30° C. Using a filtration manifold, this mixture was filtered through a polyethyleneimine-washed GC/F filter (Whatman, Maidstone, England), and the residue remaining on the filter washed thrice with 5 mL cold HEPES buffer. The filter and a sample of the filter washings were then counted in a gamma counter. To assess non-specific binding, the assay was performed in the presence of unlabeled somatostatin-14 at 200 nM. Data analysis including Hill plots of the data provided inhibition constants (see Bylund & Yamamura, "Methods of receptor binding", in Methods in Neurotransmitter Receptor Analysis, Yamamura et al., eds., Raven Press: New York, 1990).

T1 sequence (P30680 whole entry): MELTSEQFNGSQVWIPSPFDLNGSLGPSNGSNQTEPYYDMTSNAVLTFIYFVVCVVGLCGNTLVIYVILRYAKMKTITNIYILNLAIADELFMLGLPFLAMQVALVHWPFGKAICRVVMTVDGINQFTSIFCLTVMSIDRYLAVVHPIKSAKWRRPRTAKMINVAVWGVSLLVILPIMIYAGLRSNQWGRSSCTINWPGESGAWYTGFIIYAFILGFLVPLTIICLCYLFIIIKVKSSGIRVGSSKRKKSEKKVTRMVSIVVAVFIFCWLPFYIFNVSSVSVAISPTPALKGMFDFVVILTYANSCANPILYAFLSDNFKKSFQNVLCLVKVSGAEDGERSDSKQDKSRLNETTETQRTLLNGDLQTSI

Row | Compound | Ki [nM]
1 | CC(C)[C@@H]1NC(=O)[C@H](CCCCN)NC(=O)[C@@H](Cc2c[nH]c3ccccc23)NC(=O)[C@H](Cc2ccc(O)cc2)NC(=O)[C@H](Cc2ccccc2)N(C)C(=O)[C@H](CCSCC(=O)NCCCC[C@H](N)C(=O)NCC(=O)N[C@@H](CS)C(=O)N[C@@H](CCCCN)C(N)=O)NC1=O [cyclo.(N--CH3)F.YWD KV.Hcy(CH2 CO.(ε-K)GCK.amide)] (cyclo([NMeF]Y[dW]KV[hCys](X4))) | 4.2
2 | CC(C)[C@@H]1NC(=O)[C@H](CCCCN)NC(=O)[C@@H](Cc2c[nH]c3ccccc23)NC(=O)[C@H](Cc2ccc(O)cc2)NC(=O)[C@H](Cc2ccccc2)N(C)C(=O)[C@H](CCSCC(=O)NCC(=O)NCC(=O)N[C@@H](CS)C(=O)N[C@@H](CCCNC(=N)N)C(N)=O)NC1=O [cyclo.(N--CH3)F.YWD KV.Hcy(CH2 CO.GGCR.amide)] (cyclo([NMeF]Y[dW]KV[hCys](X2))) | 0.29
3 | C[C@@H](O)[C@@H]1NC(=O)[C@H](CCCCN)NC(=O)[C@@H](Cc2c[nH]c3ccccc23)NC(=O)[C@H](Cc2ccc(O)cc2)NC(=O)[C@H](Cc2ccccc2)N(C)C(=O)[C@H](CCS)NC1=O [cyclo.(N--CH3)F.YWD KT.Hcy] (cyclo(KT[hCys][NMeF]Y[dW])) | 0.26
4 | CC(C)[C@@H]1NC(=O)[C@H](CCCCN)NC(=O)[C@@H](Cc2c[nH]c3ccccc23)NC(=O)[C@H](Cc2ccc(O)cc2)NC(=O)[C@H](Cc2ccccc2)N(C)C(=O)[C@H](CCSCC(=O)NCC(=O)NCC(=O)N[C@@H](CS)C(=O)N[C@@H](CCCCN)C(N)=O)NC1=O [cyclo.(N--CH3)F.YWD KV.Hcy(CH2 CO.GGCK.amide)] (cyclo([NMeF]Y[dW]KV[hCys](X1))) | 2.5
5 | CC(C)[C@@H]1NC(=O)[C@H](CCCCN)NC(=O)[C@@H](Cc2c[nH]c3ccccc23)NC(=O)[C@H](Cc2ccc(O)cc2)NC(=O)[C@H](Cc2ccccc2)N(C)C(=O)[C@H](CCS)NC1=O [cyclo.(N--CH3)F.YWD KV.Hcy] (cyclo(KV[hCys][NMeF]Y[dW])) | < 0.01
6 | CC(C)[C@@H]1NC(=O)[C@H](CCCCN)NC(=O)[C@@H](Cc2c[nH]c3ccccc23)NC(=O)[C@H](Cc2ccc(O)cc2)NC(=O)[C@H](Cc2ccccc2)N(C)C(=O)[C@H](CCSCC(=O)N[C@@H](CS)C(=O)NCC(=O)N[C@@H](CS)C(=O)N[C@@H](CCC(=O)O)C(N)=O)NC1=O [cyclo.(N--CH3)F.YWD KV.Hcy(CH2 CO.CGCE.amide)] (cyclo(KV[hCys](X8)[NMeF]Y[dW])) | 8.5
